Laboratory results: patent US20260262643A1, “HERBICIDAL BENZOXAZINES” (FMC CORPORATION, priority 2022, published 2026)

How the values were obtained:
barnyardgrass [1] = experiment: Test C postemergence; type: in vivo, Echinochloa crusgalli; conditions: Postemergence, 1000 g ai/ha
Procedure, shortened: (§1)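 Seeds sown in loam soil–sand blend received a directed preemergence soil spray of test chemical in non-phytotoxic solvent with surfactant; postemergence plants (2–10 cm, one- to two-leaf stage) were sprayed with the same formulation. Greenhouse-held 10 days, then visually rated for injury versus untreated controls, 0 (no effect) to 100 (complete control).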

galium = experiment: Test C postemergence; type: in vivo, Galium aparine; conditions: Postemergence, 1000 g ai/ha
Procedure, shortened: as §1

ryegrass, Italian [2] = experiment: Test C preemergence; type: in vivo, Lolium multiflorum; conditions: Preemergence, 1000 g ai/ha; visual rating after 10 days, 0 to 100 scale (0 no effect, 100 complete control)
Procedure, shortened: as §1

foxtail, giant [3] = experiment: Test C preemergence; type: in vivo, Setaria faberi; conditions: Preemergence, 1000 g ai/ha; visual rating after 10 days, 0 to 100 scale (0 no effect, 100 complete control)
Procedure, shortened: as §1

ryegrass, Italian [4] = experiment: Test C postemergence; type: in vivo, Lolium multiflorum; conditions: Postemergence, 1000 g ai/ha
Procedure, shortened: as §1

barnyardgrass [5] = experiment: Test C preemergence; type: in vivo, Echinochloa crusgalli; conditions: Preemergence, 1000 g ai/ha; visual rating after 10 days, 0 to 100 scale (0 no effect, 100 complete control)
Procedure, shortened: as §1

blackgrass = experiment: Test C postemergence; type: in vivo, Alopecurus myosuroides; conditions: Postemergence, 1000 g ai/ha
Procedure, shortened: as §1

wheat = experiment: Test C postemergence; type: in vivo, Triticum aestivum; conditions: Postemergence, 1000 g ai/ha
Procedure, shortened: as §1

ragweed [6] = experiment: Test C preemergence; type: in vivo, Ambrosia artemisiifolia; conditions: Preemergence, 1000 g ai/ha; visual rating after 10 days, 0 to 100 scale (0 no effect, 100 complete control)
Procedure, shortened: as §1

corn = experiment: Test C postemergence; type: in vivo, Zea mays; conditions: Postemergence, 1000 g ai/ha
Procedure, shortened: as §1

Pigweed, Redroot [7] = experiment: Test C preemergence; type: in vivo, Amaranthus retroflexus; conditions: 1000 g ai/ha, visual rating after 10 days, 0 to 100 scale (0 no effect, 100 complete control)
Source text: (§2) Seeds of plant species selected from barnyardgrass (Echinochloa crusgalli), blackgrass (Alopecurus myosuroides), corn (Zea mays), foxtail, giant (giant foxtail, Setaria faberi), green foxtail (Setaria viridis), goosegrass (Eleusine indica), kochia (Bassia scoparia), oat, wild (wild oat, Avena fatua), pigweed, palmer (palmer amaranth, palmer pigweed, Amaranthus palmeri), Pigweed, Redroot (redroot pigweed, Amaranthus retroflexus), ragweed (common ragweed, Ambrosia artemisiifolia), ryegrass, Italian ([…] ryegrass, Lolium multiflorum), soybean (Glycine max), and wheat (Triticum aestivum) were planted into a blend of loam soil and sand and treated preemergence with a directed soil spray using test chemicals formulated in a non-phytotoxic solvent mixture which included a surfactant. At the same time, plants selected from these crops and weed species and also galium (catchweed bedstraw, Galium aparine) and horseweed (Erigeron canadensis) were planted in pots containing the same blend of loam soil and sand and treated with postemergence applications of test chemicals formulated in the same manner. Plants ranged in height from 2 to 10 cm and were in the one- to two-leaf stage for the postemergence treatment. Treated plants and untreated controls were maintained in a greenhouse for 10 days, after which time all treated plants were compared to untreated controls and visually evaluated for injury. Plant response ratings, summarized in Table C, are based on a 0 to 100 scale where 0 is no effect and 100 is complete control. A dash (-) response means no test result.

ragweed [8] = experiment: Test C postemergence; type: in vivo, Ambrosia artemisiifolia; conditions: Postemergence, 1000 g ai/ha
Procedure, shortened: as §1

Pigweed, Redroot [9] = experiment: Test C postemergence; type: in vivo, Amaranthus retroflexus; conditions: 1000 g ai/ha
Source text: as §2

foxtail, giant [10] = experiment: Test C postemergence; type: in vivo, Setaria faberi; conditions: Postemergence, 1000 g ai/ha
Procedure, shortened: as §1

kochia [11] = experiment: Test C postemergence; type: in vivo, Bassia scoparia; conditions: Postemergence, 1000 g ai/ha
Procedure, shortened: as §1

kochia [12] = experiment: Test C preemergence; type: in vivo, Bassia scoparia; conditions: Preemergence, 1000 g ai/ha; visual rating after 10 days, 0 to 100 scale (0 no effect, 100 complete control)
Procedure, shortened: as §1

[13] = 0 to 100 scale, 0 no effect, 100 complete control
[14] = 10 days, visual 0 to 100 scale (0 no effect, 100 complete control)

Row | SMILES | Plant response rating, Barnyardgrass (barnyardgrass [1]; [13]) | Plant response rating, Galium (galium; [13]) | Plant response rating, Ryegrass, Italian (ryegrass, Italian [2]) | Plant response rating, Foxtail, Giant (foxtail, giant [3]) | Plant response rating, Ryegrass, Italian (ryegrass, Italian [4]; [13]) | Plant response rating, Barnyardgrass (barnyardgrass [5]) | Plant response rating, Blackgrass (blackgrass; [13]) | Plant response rating, Wheat (wheat; [13]) | Plant response rating, Ragweed (ragweed [6]) | Plant response rating, Corn (corn; [13]) | Plant response rating, Pigweed, Redroot (Pigweed, Redroot [7]) | Plant response rating, Ragweed (ragweed [8]; [13]) | Plant response rating, Pigweed, Redroot (Pigweed, Redroot [9]; [13]) | Plant response rating, Foxtail, Giant (foxtail, giant [10]; [13]) | Plant response rating, Kochia (kochia [11]; [13]) | Plant response rating, Kochia (kochia [12]) | other results
1 | CC1CN(C(=O)c2ccnc(-n3ccnc3)c2)c2cccc(Cl)c2O1 (stereo not drawn) [Compound 197] | 0 | 30 | 0 | 30 | 0 | 0 | 0 | 0 | 0 | 0 | 30 | 0 | 50 | 0 | 10 | 0 | 
2 | CC1CN(C(=O)c2ccnc(-c3ccccn3)c2)c2cccc(Cl)c2O1 (stereo not drawn) [Compound 198] | 20 | 0 | 0 | 0 | 0 | 10 | 0 | 20 | 0 | 0 | 0 | 0 | 0 | 0 | 0 | 0 | 
3 | C[C@H]1CN(C(=O)c2cccc(-n3ccnn3)c2)c2cccc(Cl)c2O1 [Compound 199] | 30 | 20 | 30 | 50 | 40 | 0 | 20 | 0 | 0 | 10 | 20 | 0 | 40 | 20 | 10 | 0 | 
4 | C[C@H]1CN(C(=O)c2cccc(-c3cccnc3)c2)c2cccc(Cl)c2O1 [Compound 200] | 10 | 30 | 0 | 0 | 0 | 0 | 0 | 0 | 0 | 20 | 0 | 0 | 20 | 0 | 0 | 0 | 
5 | CC1(C)CN(C(=O)c2ccnc(-n3cncn3)c2)c2ccccc2O1 [Compound 202] | 0 | 0 | 0 | 0 | 0 | 0 |  | 30 | 0 |  | 0 | 0 | 0 | 0 | 0 | 0 | pest or weed control at 1000 g/ha (blackgrass; Alopecurus myosuroides, post-emergence, 240 h, 0 to 100 scale, 0 no effect, 100 complete control, read-out: Plant response rating, Blackgrass): 0%; Corn plant response rating (crop injury, 0 = no effect, 100 = complete kill) at 1000 g/ha (corn; Zea mays, post-emergence, 240 h, 0 to 100 scale, 0 no effect, 100 complete control): 0%
6 | C[C@H]1CN(C(=O)c2cccc(-c3ccncn3)c2)c2cccc(Cl)c2O1 [Compound 287] |  |  | 20 | 0 |  | 60 |  |  | 0 |  | 0 |  |  |  |  | 30 | Plant response rating, Barnyardgrass (barnyardgrass [1]; [14]): 20; Plant response rating, Galium (galium; [14]): 20; Plant response rating, Ryegrass, Italian (ryegrass, Italian [4]; [14]): 0; Plant response rating, Blackgrass (blackgrass; [14]): 0; Plant response rating, Wheat (wheat; [14]): 0; Plant response rating, Corn (corn; [14]): 0; Plant response rating, Ragweed (ragweed [8]; [14]): 0; Plant response rating, Pigweed, Redroot (Pigweed, Redroot [9]; [14]): 20; Plant response rating, Foxtail, Giant (foxtail, giant [10]; [14]): 10; Plant response rating, Kochia (kochia [11]; [14]): 10
